One test relates to γ-secretase activity. Kind of test: Screening for γ-secretase-modulating activity in SKN neuroblastoma cells carrying APP swedish mutant. The format is cell-based. The conditions noted are these: read-out: IC50 on the γ-secretase activity, Activity range. The procedure: Screening was carried out using SKN neuroblastoma cells carrying the APP-“swedish mutant” (point mutations at position 595 and 596, numbering based on APP695) grown in DMEM/NUT-mix F12 (HAM) provided by Gibco (cat no. 31330-38) containing 5% Serum/Fe supplemented with 1% non-essential amino acids, 100 U/ml Pen/Strep.
Cells were grown to near confluency.
The screening was performed using the assay as described in Citron et al (1997) Nature Medicine 3: 67.
IC50-Values of Selected Compounds of the Invention on the γ-Secretase Activity.

Another test addresses T1, Cyclooxygenase-1 (Cox-1) (Ovis aries, UniProt P05979).
T1 construct: purchased Cayman Chemical Company 760111
T1 sequence (P05979 25-600): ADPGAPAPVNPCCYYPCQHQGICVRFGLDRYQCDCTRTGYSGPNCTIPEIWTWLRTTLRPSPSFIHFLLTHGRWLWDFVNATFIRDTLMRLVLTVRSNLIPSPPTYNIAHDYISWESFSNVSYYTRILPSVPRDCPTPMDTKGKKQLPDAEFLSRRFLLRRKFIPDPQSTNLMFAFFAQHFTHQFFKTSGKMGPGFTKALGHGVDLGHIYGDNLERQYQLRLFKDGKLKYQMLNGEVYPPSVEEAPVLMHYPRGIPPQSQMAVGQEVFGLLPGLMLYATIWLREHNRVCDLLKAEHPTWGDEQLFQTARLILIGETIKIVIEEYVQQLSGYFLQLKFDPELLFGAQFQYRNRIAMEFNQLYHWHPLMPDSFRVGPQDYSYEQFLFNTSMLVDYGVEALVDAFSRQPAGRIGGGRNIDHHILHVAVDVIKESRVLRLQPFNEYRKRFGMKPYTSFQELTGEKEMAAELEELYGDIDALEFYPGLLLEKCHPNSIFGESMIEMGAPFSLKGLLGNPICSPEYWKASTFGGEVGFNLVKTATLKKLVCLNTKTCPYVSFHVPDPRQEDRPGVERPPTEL
Kind of test: Colorimetric Cox inhibitor screening assay (Cayman), Cox-1. In kind it is biochemical. The protocol: (§1) Determination of the Effect of the Compounds According to the Invention on Cyclooxygenase-1 and Cyclooxygenase-2 (Cox-1, Cox-2)
(§2) Inhibition of Cox-1 and Cox-2 was determined using the Colorimetric Cox inhibitor screening assay provided by Cayman Chemical Company, Ann Arbor, Mich., USA. (Cat. No. 760111) according to manufacturer's instructions.

Another test has as its target T2, Cyclooxygenase-2 (Cox-2) (Ovis aries, UniProt P79208).
T2 construct: purchased Cayman Chemical Company 760111
T2 sequence (P79208 17-603): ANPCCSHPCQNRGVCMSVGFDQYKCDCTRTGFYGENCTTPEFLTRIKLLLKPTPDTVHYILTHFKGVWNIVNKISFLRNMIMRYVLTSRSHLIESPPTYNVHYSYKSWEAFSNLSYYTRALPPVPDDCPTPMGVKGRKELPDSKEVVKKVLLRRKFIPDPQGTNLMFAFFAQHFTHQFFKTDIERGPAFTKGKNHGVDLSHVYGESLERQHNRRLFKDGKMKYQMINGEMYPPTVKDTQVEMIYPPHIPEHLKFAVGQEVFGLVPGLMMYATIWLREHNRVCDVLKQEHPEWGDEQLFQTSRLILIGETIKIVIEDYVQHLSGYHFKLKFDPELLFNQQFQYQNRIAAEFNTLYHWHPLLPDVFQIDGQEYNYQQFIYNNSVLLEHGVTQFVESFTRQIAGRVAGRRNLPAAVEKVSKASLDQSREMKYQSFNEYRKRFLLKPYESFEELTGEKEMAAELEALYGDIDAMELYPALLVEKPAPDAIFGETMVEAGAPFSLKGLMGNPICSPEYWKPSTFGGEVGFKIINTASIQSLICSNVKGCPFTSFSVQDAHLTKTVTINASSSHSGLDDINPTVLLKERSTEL
Kind of test: Colorimetric Cox inhibitor screening assay (Cayman), Cox-2. The format is biochemical. The procedure: as §1, §2

Broadly, the IC50 is the concentration that gives 50% inhibition. In general, inhibition refers to the percentage by which the read-out fell short of the control. A higher inhibition goes with strong suppression.

`O=C(O)Cc1cc(OCc2ccc(F)cc2)cc(-c2ccc(C(F)(F)F)cc2)c1` [I, [5-(4-Fluoro-benzyloxy)-4′-trifluoromethyl-biphenyl-3-yl]-acetic acid]: the concentration for half-maximal inhibition (IC50) with γ-secretase activity lay within 1 to 10 µM. Further, the inhibition at 100 µM on Cyclooxygenase-1 (Cox-1) and on Cyclooxygenase-2 (Cox-2) was less than 50% each time.
On to `O=C(O)Cc1cc(OCc2ccc(C(F)(F)F)cc2)cc(-c2ccc(C(F)(F)F)cc2)c1` [III, [4′-Trifluoromethyl-5-(4-trifluoromethyl-benzyloxy)-biphenyl-3-yl]-acetic acid], for which the 50% inhibitory concentration (IC50) with γ-secretase activity was less than 1 µM. Further, the inhibition at 100 µM against Cyclooxygenase-1 (Cox-1) and against Cyclooxygenase-2 (Cox-2) was less than 50% each time.
Turning to `O=C(O)Cc1cc(OCc2ccccc2)cc(-c2cc(Cl)cc(Cl)c2)c1` [IX, (5-Benzyloxy-3′,5′-dichloro-biphenyl-3-yl)-acetic acid], the IC50 in the test on γ-secretase activity lay within 1 to 10 µM. Also, the inhibition at 100 µM on Cyclooxygenase-1 (Cox-1) and at Cyclooxygenase-2 (Cox-2) was less than 50% each time.
For `O=C(O)Cc1cc(OCC2CCCCC2)cc(-c2ccc(C(F)(F)F)cc2)c1` [V, (5-Cyclohexylmethoxy-4′-trifluoromethyl-biphenyl-3-yl)-acetic acid], in the test on γ-secretase activity, the IC50 is less than 1 µM. Also, the inhibition at 100 µM against Cyclooxygenase-1 (Cox-1) and against Cyclooxygenase-2 (Cox-2) was less than 50% in each case.
Regarding `O=C(O)Cc1cc(OCc2ccc(S(=O)(=O)N3CCCC3)cc2)cc(-c2ccc(C(F)(F)F)cc2)c1` [VI, {5-[4-(Pyrrolidine-1-sulfonyl)-benzyloxy]-4′-trifluoromethyl-biphenyl-3-yl}-acetic acid], in the test with γ-secretase activity, the IC50 was 1 to 10 µM. The inhibition at 100 µM on Cyclooxygenase-1 (Cox-1) and at Cyclooxygenase-2 (Cox-2) was less than 50% throughout.
Take `CCCC(C(=O)O)c1cc(OCc2ccccc2)cc(-c2ccc(C(F)(F)F)cc2)c1` (stereo not shown) [VIII, 2-(5-Benzyloxy-4′-trifluoromethyl-biphenyl-3-yl)-pentanoic acid]: the IC50 in the test on γ-secretase activity was less than 1 µM. Further, the inhibition at 100 µM against Cyclooxygenase-1 (Cox-1) and against Cyclooxygenase-2 (Cox-2) was less than 50% in each case.
`O=C(O)Cc1cc(OCc2ccccc2)cc(-c2ccc(C(F)(F)F)cc2)c1` [X, (5-Benzyloxy-4′-trifluoromethyl-biphenyl-3-yl)-acetic acid]: the IC50 with γ-secretase activity was in the range of 1 to 10 µM. Moreover, the inhibition at 100 µM against Cyclooxygenase-1 (Cox-1) and against Cyclooxygenase-2 (Cox-2) was less than 50% each time.
Take `O=C(O)Cc1cc(OCc2ccccc2)cc(-c2ccc(OC(F)(F)F)cc2)c1` [XIII, (5-Benzyloxy-4′-trifluoromethoxy-biphenyl-3-yl)-acetic acid]: the IC50 in the test with γ-secretase activity lay in the range of 1 to 10 µM. Besides, the inhibition at 100 µM against Cyclooxygenase-1 (Cox-1) and on Cyclooxygenase-2 (Cox-2) was less than 50% each time.
In the case of `CC(C(=O)O)c1cc(OCc2ccccc2)cc(-c2ccc(C(F)(F)F)cc2)c1` (stereo not shown) [XIX, 2-(5-Benzyloxy-4′-trifluoromethyl-biphenyl-3-yl)-propionic acid], in the test on γ-secretase activity, the IC50 lay within 1 to 10 µM. Moreover, the inhibition at 100 µM at Cyclooxygenase-1 (Cox-1) and at Cyclooxygenase-2 (Cox-2) was less than 50% throughout.
In the case of `CCCC(C(=O)O)c1cc(OCC2CC2)cc(-c2ccc(C(F)(F)F)cc2)c1` (stereo not shown) [XL, 2-(5-Cyclopropylmethoxy-4′-trifluoromethyl-biphenyl-3-yl)-pentanoic acid], in the test on γ-secretase activity, the IC50 lay in the range of 1 to 10 µM. The inhibition at 100 µM against Cyclooxygenase-1 (Cox-1) and at Cyclooxygenase-2 (Cox-2) was less than 50% throughout.
On to `O=C(O)Cc1cc(OCC2CC2)cc(-c2ccc(C(F)(F)F)cc2)c1` [XLII, (5-Cyclopropylmethoxy-4′-trifluoromethyl-biphenyl-3-yl)-acetic acid], for which the 50% inhibitory concentration (IC50) with γ-secretase activity was in the range of 1 to 10 µM. For the same compound, the inhibition at 100 µM on Cyclooxygenase-1 (Cox-1) and against Cyclooxygenase-2 (Cox-2) was less than 50% each time.
For the compound `O=C(O)Cc1cc(OCc2cc(Cl)cc(Cl)c2)cc(-c2ccc(C(F)(F)F)cc2)c1` [XLIV, [5-(3,5-Dichloro-benzyloxy)-4′-trifluoromethyl-biphenyl-3-yl]-acetic acid], the concentration for half-maximal inhibition (IC50) with γ-secretase activity is 1 to 10 µM. Further, the inhibition at 100 µM against Cyclooxygenase-1 (Cox-1) and on Cyclooxygenase-2 (Cox-2) was less than 50% throughout.
As for `CN(C)S(=O)(=O)c1ccc(COc2cc(CC(=O)O)cc(-c3ccc(C(F)(F)F)cc3)c2)cc1` [XLVI, [5-(4-Dimethylsulfamoyl-benzyloxy)-4′-trifluoromethyl-biphenyl-3-yl]-acetic acid], the IC50 in the test on γ-secretase activity fell in the range of 1 to 10 µM. The inhibition at 100 µM at Cyclooxygenase-1 (Cox-1) and against Cyclooxygenase-2 (Cox-2) was less than 50% in each case.
Turning to `CC(Oc1cc(CC(=O)O)cc(-c2ccc(C(F)(F)F)cc2)c1)c1ccccc1` (stereo not shown) [XLVII, [5-(1-Phenyl-ethoxy)-4′-trifluoromethyl-biphenyl-3-yl]-acetic acid], the 50% inhibitory concentration (IC50) in the test on γ-secretase activity fell in the range of 1 to 10 µM. Further, the inhibition at 100 µM against Cyclooxygenase-1 (Cox-1) and against Cyclooxygenase-2 (Cox-2) was less than 50% throughout.
On to `CC(C)(C(=O)O)c1cc(OCc2ccccc2)cc(-c2ccc(C(F)(F)F)cc2)c1` [XX, 2-(5-Benzyloxy-4′-trifluoromethyl-biphenyl-3-yl)-2-methyl-propionic acid], for which, in the test with γ-secretase activity, the IC50 lay in the range of 1 to 10 µM. For the same compound, the inhibition at 100 µM on Cyclooxygenase-1 (Cox-1) and against Cyclooxygenase-2 (Cox-2) was less than 50% throughout.
With `O=C(O)C1(c2cc(OCc3ccccc3)cc(-c3ccc(C(F)(F)F)cc3)c2)CC1` [XXI, 1-(5-Benzyloxy-4′-trifluoromethyl-biphenyl-3-yl)-cyclopropanecarboxylic acid], the IC50 with γ-secretase activity was 1 to 10 µM. The inhibition at 100 µM against Cyclooxygenase-1 (Cox-1) and against Cyclooxygenase-2 (Cox-2) was less than 50% throughout.
Take `CC(C)Oc1cccc(-c2cc(CC(=O)O)cc(OCc3ccccc3)c2)c1` [XXVIII, (5-Benzyloxy-3′-isopropoxy-biphenyl-3-yl)-acetic acid]: the IC50 with γ-secretase activity lay within 10 to 100 µM.
Still for that read-out and setting: for `COc1ccccc1-c1cc(CC(=O)O)cc(OCc2ccccc2)c1` [XXX, (5-Benzyloxy-2′-methoxy-biphenyl-3-yl)-acetic acid] the value was 10 to 100 µM; for `Cc1ccccc1-c1cc(CC(=O)O)cc(OCc2ccccc2)c1` [XXXI, (5-Benzyloxy-2′-methyl-biphenyl-3-yl)-acetic acid], 10 to 100 µM; for `Cc1cccc(-c2cc(CC(=O)O)cc(OCc3ccccc3)c2)c1` [XXXII, (5-Benzyloxy-3′-methyl-biphenyl-3-yl)-acetic acid], 10 to 100 µM.
Same read-out and setting: the result for `O=C(O)Cc1cc(OCc2ccccc2)cc(-c2cccc(C(F)(F)F)c2)c1` [XXXIII, (5-Benzyloxy-3′-trifluoromethyl-biphenyl-3-yl)-acetic acid] reads 10 to 100 µM; that for `O=C(O)Cc1cc(OCc2ccccc2)cc(-c2ccccc2F)c1` [XXXIV, (5-Benzyloxy-2′-fluoro-biphenyl-3-yl)-acetic acid], 10 to 100 µM.
For the compound `CCCC(C(=O)O)c1cc(OCc2ccc(S(=O)(=O)N3CCCC3)cc2)cc(-c2ccc(C(F)(F)F)cc2)c1` (stereo not shown) [XXXIX, 2-{5-[4-(Pyrrolidine-1-sulfonyl)-benzyloxy]-4′-trifluoromethyl-biphenyl-3-yl}-pentanoic acid], the 50% inhibitory concentration (IC50) in the test with γ-secretase activity is 1 to 10 µM. Also, the inhibition at 100 µM on Cyclooxygenase-1 (Cox-1) and at Cyclooxygenase-2 (Cox-2) was less than 50% throughout.
Turning to `Cc1ccc(-c2cc(CC(=O)O)cc(OCc3ccccc3)c2)cc1` [XXXV, (5-Benzyloxy-4′-methyl-biphenyl-3-yl)-acetic acid], the IC50 with γ-secretase activity fell in the range of 10 to 100 µM.
The same measure, in the same setting: the result for `O=C(O)Cc1cc(OCc2ccccc2)cc(-c2cccc(F)c2)c1` [XXXVI, (5-Benzyloxy-3′-fluoro-biphenyl-3-yl)-acetic acid] reads 10 to 100 µM.
Still for that read-out and setting: for `O=C(O)Cc1cc(OCc2ccccc2)cc(-c2cccc(Cl)c2)c1` [XXXVII, (5-Benzyloxy-3′-chloro-biphenyl-3-yl)-acetic acid] the value was 100 to 300 µM; for `O=C(O)Cc1cc(OCc2ccccc2)cc(-c2cccc(OC(F)(F)F)c2)c1` [XXXVIII, (5-Benzyloxy-3′-trifluoromethoxy-biphenyl-3-yl)-acetic acid], 1 to 10 µM.

Source of the values: patent publication US7825160B2, “(Biphenyl) carboxylic acids and derivatives thereof” (Cellzome Limited, priority 2004, dated 2010).
